Data on 15 molecules can be found in patent US5008271A, “DC-88A derivatives” (Kyowa Hakko Kogyo Co., Ltd., priority 1988, dated 1991).

Like-named read-outs stand apart in the source and are kept apart here.

The test system of one data set is dd strain male mice. Put plainly: Acute toxicity test (minimum lethal dose). Type of data set: in vivo. Particulars: intraperitoneal, mortality observed for 14 days. As to the method:
Using dd strain male mice weighing 20 ±l g, a test compound was intraperitoneally administered. MLD (the minimum lethal dose) was determined by observing the mortality for 14 days after administration.

For another data set, the system named is HeLa S3 cells. Put plainly: Growth inhibition test using HeLa S3 cells. Type of data set: cell-based. As to the method:
The pharmacological activity of Compound (I), Compound (II) and Compound (III) was determined by growth inhibition test using HeLa S3 cells.
Test on growth inhibition of HeLa S3 cells:
HeLa S3 cells diluted to 3×10^4 cells/ml with MEM medium containing 10% calf fetal serum and 2 mM glutamine were separately distributed by 0.1 ml each in each well of a 96 well microtiter plate.
After culturing at 37° C. overnight in a CO2 incubator, 0.05 ml each of a test sample appropriately diluted with MEM medium was added to each well.
After culturing the cells for 72 hours in the CO2 incubator, the culture supernatant was removed. After washing once with phosphate buffered physiological saline (PBS), 0.1 ml each of MEM medium containing 0.02% neutral red was added to each well and then cultured at 37° C. for an hour in the CO2 -incubator to stain the cells. After removing the culture supernatant, the cells were washed once with physiological saline, and the dye was extracted with 0.001 N HCl/30% ethanol. Absorbance at 550 nm of the extract was measured with a microplate reader. By comparing absorbance of extract of intact cells with that of the cells treated with a test compound in known concentrations IC50, i.e. the concentration which inhibited growth of the cells by 50% was determined.

The next data set concerns various bacteria. Particulars: against various bacteria; cited from earlier work.
In data set [1] the test system is lymphocytic leukemia P388. Particulars: lymphocytic leukemia P388, etc.; cited from earlier work.
Setting [2] is: Homo sapiens, HeLa S3, 72 h, read-out: IC50 (concentration which inhibited growth of the cells by 50%), HeLa S3 cells, 72 hours, neutral red staining.
The mark [3] stands for this setting: Homo sapiens, HeLa S3 cells, 72 hours, neutral red staining, read-out: IC50 (concentration which inhibited growth of the cells by 50%).

Regarding `COC(=O)C1(C)Nc2c(O[Si](C)(C)C(C)(C)C)cc3c(c2C1=O)C(CBr)CN3C(=O)c1cc2cc(OC)c(OC)c(OC)c2[nH]1` (stereo not drawn) [Compound 1], the “Acute Toxicity (MLD), minimum lethal dose” value (“Acute Toxicity (MLD)” for short) in the data set on dd strain male mice worked out at 0.25 mg/kg.

For `COC(=O)C1(C)Nc2c(O)cc3c(c2C1O)C(CBr)CN3C(=O)c1cc2cc(OC)c(OC)c(OC)c2[nH]1` (stereo not drawn) [Compound 5], in the data set with HeLa S3 cells (setting [2]), the IC50 was determined as 0.26 nM. The “Acute Toxicity (MLD)” value in the data set with dd strain male mice came to 0.63 mg/kg. Consider `COC(=O)C1(C)Nc2c(O)cc3c(c2C1O)C(CBr)CN3C(=O)c1cc2cc(OC)c(OC)c(OC)c2[nH]1` (stereo not drawn) [Compound 6], for which, in the data set with HeLa S3 cells (read-out: IC50 (concentration which inhibited growth of the cells by 50%), HeLa S3 cells, 72 hours, neutral red staining), the IC50 stood at 0.2 nM. In addition, the “Acute Toxicity (MLD)” value in the data set with dd strain male mice was 1.3 mg/kg. For `COC(=O)C1(C)Nc2c(OC(C)=O)cc3c(c2C1=O)C(CBr)CN3C(=O)c1cc2cc(OC)c(OC)c(OC)c2[nH]1` (stereo not drawn) [Compound 7], in the data set with dd strain male mice, the “Acute Toxicity (MLD)” value was 0.063 mg/kg. Same read-out and setting: the value for `COC(=O)C1(C)Nc2c(O[Si](C)(C)C(C)(C)C)cc3c(c2C1OC(C)=O)C(CBr)CN3C(=O)c1cc2cc(OC)c(OC)c(OC)c2[nH]1` (stereo not drawn) [Compound 8] was 2.5 mg/kg; that for `COC(=O)C1(C)Nc2c(OC(=O)N(C)C)cc3c(c2C1=O)C(CBr)CN3C(=O)c1cc2cc(OC)c(OC)c(OC)c2[nH]1` (stereo not drawn) [Compound 13] was 2.5 mg/kg. As for `C=CCOC(=O)Oc1cc2c(c3c1NC(C)(C(=O)OC)C3=O)C(CBr)CN2C(=O)c1cc2cc(OC)c(OC)c(OC)c2[nH]1` (stereo not drawn) [Compound 14], the IC50 in the data set on HeLa S3 cells (setting [2]) was determined as 0.14 nM. Also, in the data set on dd strain male mice, the “Acute Toxicity (MLD)” value is reported as 0.5 mg/kg. For the molecule `CCCCCCCCCCCC(=O)Oc1cc2c(c3c1NC(C)(C(=O)OC)C3=O)C(CBr)CN2C(=O)c1cc2cc(OC)c(OC)c(OC)c2[nH]1` (stereo not drawn) [Compound 15], the IC50 with HeLa S3 cells (setting [2]) worked out at 0.042 nM. The “Acute Toxicity (MLD)” value in the data set with dd strain male mice was 0.5 mg/kg. With `CCOC(=O)C1(C)Nc2c(O)cc3c(c2C1=O)C(CBr)CN3C(=O)c1cc2cc(OC)c(OC)c(OC)c2[nH]1` (stereo not drawn) [Compound 17], in the data set with HeLa S3 cells (setting [3]), the IC50 was 0.019 nM.

`C=CCOC(=O)C1(C)Nc2c(O)cc3c(c2C1=O)C(CBr)CN3C(=O)c1cc2cc(OC)c(OC)c(OC)c2[nH]1` (stereo not drawn) [Compound 19]: in the data set on HeLa S3 cells (setting [3]), the IC50 stood at 0.94 nM. The same measure, in the same setting: the figure for `COc1cc2cc(C(=O)N3CC(CBr)c4c3cc(O)c3c4C(=O)C(C)(C(=O)OCc4ccccc4)N3)[nH]c2c(OC)c1OC` (stereo not drawn) [Compound 21] is 1.9 nM; for `C=CCC1(C)Nc2c(O)cc3c(c2C1=O)C(CBr)CN3C(=O)c1cc2cc(OC)c(OC)c(OC)c2[nH]1` (stereo not drawn) [Compound 25] it is 0.29 nM; for `COc1cc2cc(C(=O)N3CC(CBr)c4c3cc(O)c3c4C(O)C(C)(COC(C)=O)N3)[nH]c2c(OC)c1OC` (stereo not drawn) [Compound 27] it is 3.3 nM. Turning to `COC(=O)C1(C)NC2=C(C1=O)C13CC1CN(C(=O)c1cc4cc(OC)c(OC)c(OC)c4[nH]1)C3=CC2=O` (stereo not drawn) [DC-88A], the IC50 in the data set with HeLa S3 cells (setting [2]) worked out at 0.039 nM. The antibacterial activity result in the data set on various bacteria is “exhibits not only an antibacterial activity against various bacteria”. Also, the “antitumor activity against lymphocytic leukemia P388” value in data set [1] is listed as “an antitumor activity against lymphocytic leukemia P388, etc”. On to `COC(=O)C1(C)Nc2c(O)cc3c(c2C1=O)C(CBr)CN3C(=O)c1cc2cc(OC)c(OC)c(OC)c2[nH]1` (stereo not drawn) [DC-89B2, reference compound], for which, in the data set with HeLa S3 cells (setting [2]), the IC50 was 0.014 nM.
